The values that follow come from PMC3461044, “Probing Protein Sequences as Sources for Encrypted Antimicrobial Peptides” (PLoS ONE, 2012).

No end group written: not given here.

Test [1] relates to Xanthomonas axonopodis pv. glycines. Particulars: for MIC, Xanthomonas axonopodis pv. glycines: serial 2-fold dilutions, 96-well, inoculum ~10^5 CFU/mL, highest 256 µg/mL, 48 h, OD600, NDA = Non-detectable activity. On the procedure: MICs were determined using the M7-A6 protocol from the Clinical Laboratory Standards Institute (CLSI). […] Initial bacterium inoculum of ∼10^5 colony forming units/mL were transferred, along with serial 2-fold dilutions of each peptide to 96-well plates and incubated for 12 h. […] For each peptide concentration, optical density (OD600) readings were subtracted from that of the growth medium and divided by the positive control (100% bacterial growth). Inhibitory assays for X. axonopodis pv. glycines were conducted by the same methodology with longer incubation time (48 h).

Test [2] concerns Escherichia coli ATCC 25922. Type of test: cell-based. Here is the method:
(§1) MICs were determined using the M7-A6 protocol from the Clinical Laboratory Standards Institute (CLSI). Escherichia coli ATCC 25922, Pseudomonas aeruginosa ATCC 27853, Staphylococcus aureus ATCC 29313 were streaked in Mueller-Hinton agar, grown overnight at 37°C, transferred to Mueller-Hinton broth and incubated until readings at 600 nm reached the equivalent of 0.5 in the MacFarland scale. […]. Inhibitory assays for X. axonopodis pv. glycines were conducted by the same methodology with longer incubation time (48 h).

The test system of test [3] is Pseudomonas aeruginosa ATCC 27853. It is filed as cell-based. On the procedure: as §1
Test [4] concerns Staphylococcus aureus ATCC 29313. Type of test: cell-based. On the procedure: as §1
Setting [5] is: Mueller-Hinton broth, serial 2-fold dilutions, inoculum ~10^5 CFU/mL, highest 256 µg/mL, 12 h, OD600, NDA = Non-detectable activity.
Setting [6] is: from MIC, 0 where no detectable activity.

As to “AAAAAAAIKMLMDLVNERIMALNKKAKK [Q6TV81(25–52)]”, in test [1], the “MIC, Xanthomonas axonopodis pv. glycines” value was under 1 µM.

For “FFFDTLKNLAGKVIGALT [Phes, reference compound]”, the “MIC, Xanthomonas axonopodis pv. glycines” value in test [1] came to 33 µM.

With “FINKAGKLQSQLRTTVVAAAAFLDAFQKVA [O43312(33–62)]”, the “MIC, Xanthomonas axonopodis pv. glycines” value in test [1] is 80 µM.

Consider “FKQFHFKDFNRAFGFMTRVALQAEKL [P61458(35–60)]”, for which the “MIC, Xanthomonas axonopodis pv. glycines” value in test [1] is given as 40 µM.

For the substance “FLSLIPHAINAVSTLVHHF [PS -2, reference compound]”, the “MIC, Xanthomonas axonopodis pv. glycines” value in test [1] worked out at 121 µM.

For “GIGDILKNLAKAAGKAALHAVGESL [HSP-4, reference compound]”, in test [1], the “MIC, Xanthomonas axonopodis pv. glycines” value is given as under 2 µM.

Take “GIGKFLHSAKKFGKAFVGEIMNS-NH2 [Magainin-2 amide, reference compound]”: in test [1], the “MIC, Xanthomonas axonopodis pv. glycines” value is reported as 13 µM.

With “GKFHQIKKMFLSVGVKVTSLKRIQFGDF [A5LDU0(184–211)]”, the “MIC, Xanthomonas axonopodis pv. glycines” value in test [1] worked out at 10 µM.

In the case of “GLKDMIKNLAKEAAVKLAGAVINKFSPQPQ [Nattererin-1, reference compound]”, in test [1], the “MIC, Xanthomonas axonopodis pv. glycines” value is on record as under 1 µM.

On to “GLNTLKKVIQGLHEVIKLVNNHA [Pseudin B, reference compound]”, for which the “MIC, Xanthomonas axonopodis pv. glycines” value in test [1] is given as under 2 µM.

For “GLWSTIKQKGKEAAIAAAKAAGQAALGAL [DS 01, reference compound]”, the “MIC, Xanthomonas axonopodis pv. glycines” value in test [1] is under 1 µM.

As for “GVLDILKGAAKDLAGHVATKVINKI [Syphaxin, reference compound]”, the “MIC, Xanthomonas axonopodis pv. glycines” value in test [1] amounted to 25 µM.

Take “Gm0026x00785(77–103) (HKMDLHWYLRTLEEVVIRALQRFQFR)”: the “concentration that inhibited the in vitro growth of X. axonopodis pv. glycines” value in test [1] (in vitro growth) was 10 µM.

As to LAKRRVLTLLRQLRRVSPSS [Q7YRI0(9–28)], in test [1], the “MIC, Xanthomonas axonopodis pv. glycines” value is under 2 µM.

On to “LRPAILVRVKGKGL [Hyposin HA-6, reference compound]”, for which the “MIC, Xanthomonas axonopodis pv. glycines” value in test [1] came out at 42 µM.

For the substance “LVQRFHAYLHKFREAFMNVGAAAAVEGTKAA [A4HW34(187–217)]”, the “MIC, Xanthomonas axonopodis pv. glycines” value in test [1] is given as 37 µM.

Consider “VWTTAMEKSSAANFSMSRNQRRSSLHSL [gb|AAD22970.1|(120–148)]”, for which, in test [2] (setting [5]), the “MIC, Escherichia coli” value is “NDA”. For the same substance, the “1/(log(MICs (mM)), Escherichia coli)” value in test [2] (setting [6]) was 0. Further, the “MIC, Pseudomonas aeruginosa” value in test [3] (setting [5]) is given as “NDA”. Besides, the “1/(log(MICs (mM)), Pseudomonas aeruginosa)” value in test [3] (setting [6]) is 0. The “MIC, Staphylococcus aureus” value in test [4] (setting [5]) was “NDA”. The “1/(log(MICs (mM)), Staphylococcus aureus)” value in test [4] (setting [6]) stood at 0. Further, the “1/(log(MICs (mM)), Xanthomonas axonopodis pv. glycines)” value in test [1] (setting [6]) worked out at 0. Besides, in test [1], the “MIC, Xanthomonas axonopodis pv. glycines” value is “NDA”.
